From PubChem BioAssay AID1963854 (Molecular Pharmacology Branch, DTP, NCI, 2024)

Tested on: 186277-243-T-J2-PDC complex spheroid viability
Test: Anticancer human tumor 186277-243-T-J2-PDC patient-derived colon adenocarcinoma cell line growth inhibition [POLQ]
Conditions: for IC50: curve of first compound; for viability, T/C: stronger effect = lower value
How it was run: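 PDC + HUVEC + MSC complex spheroids; POLQ inhibitors ± partner drugs; top conc. at/near clinical Cmax, else 10 microM (SN-38 1 microM), half-log dilutions; 37 degrees C, 5% CO2.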

[1] = second compound 0.0316 µM, first compound 0.0316 µM
[2] = second compound 0.0316 µM, first compound 0.1 µM
[3] = second compound 0.0316 µM, first compound 0.316 µM
[4] = second compound 0.0316 µM, first compound 1 µM
[5] = second compound 0.1 µM, first compound 0.0316 µM
[6] = second compound 0.1 µM, first compound 0.1 µM
[7] = second compound 0.1 µM, first compound 0.316 µM
[8] = second compound 0.1 µM, first compound 1 µM
[9] = second compound 0.316 µM, first compound 0.0316 µM
[10] = second compound 0.316 µM, first compound 0.1 µM
[11] = second compound 0.316 µM, first compound 0.316 µM
[12] = second compound 0.316 µM, first compound 1 µM
[13] = second compound 1 µM, first compound 0.0316 µM
[14] = second compound 1 µM, first compound 0.1 µM
[15] = second compound 1 µM, first compound 0.316 µM
[16] = second compound 1 µM, first compound 1 µM
[17] = second compound 3.16 µM, first compound 0.0316 µM
[18] = second compound 3.16 µM, first compound 0.1 µM
[19] = second compound 3.16 µM, first compound 0.316 µM
[20] = second compound 3.16 µM, first compound 1 µM
[21] = second compound 10 µM, first compound 0.0316 µM
[22] = second compound 10 µM, first compound 0.1 µM
[23] = second compound 10 µM, first compound 0.316 µM
[24] = second compound 10 µM, first compound 1 µM
[25] = second compound 0.0316 µM, first compound 0.00316 µM
[26] = second compound 0.0316 µM, first compound 0.01 µM
[27] = second compound 0.1 µM, first compound 0.00316 µM
[28] = second compound 0.1 µM, first compound 0.01 µM
[29] = second compound 0.316 µM, first compound 0.00316 µM
[30] = second compound 0.316 µM, first compound 0.01 µM
[31] = second compound 1 µM, first compound 0.00316 µM
[32] = second compound 1 µM, first compound 0.01 µM
[33] = second compound 3.16 µM, first compound 0.00316 µM
[34] = second compound 3.16 µM, first compound 0.01 µM
[35] = second compound 10 µM, first compound 0.00316 µM
[36] = second compound 10 µM, first compound 0.01 µM
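Note: spheroids exposed to compounds for seven days.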
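Throughout, for viability, T/C: 100% = DMSO vehicle control viability.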

`COc1cc(C2c3cc4c(cc3C(OC3OC5COC(C)OC5C(O)C3O)C3COC(=O)C23)OCO4)cc(OC)c1O` (stereo unspecified) + Nc1ccc(C#CCN(C(=O)Cc2ncc(C(F)(F)F)cc2C(F)(F)F)c2ccc(F)cc2)nn1 gave an IC50 (second compound 0.0316 µM) of 4570 nM, an IC50 (second compound 0.1 µM) of 3960 nM and an IC50 (second compound 0.316 µM) of 3190 nM. For the same compound, the IC50 (second compound 1 µM) was 3740 nM, the IC50 (second compound 3.16 µM) was 3600 nM and the IC50 (second compound 10 µM) was 2630 nM. The viability, T/C [1] was 96.2%, the viability, T/C [2] was 104% and the viability, T/C [3] was 128%. It also gave a viability, T/C [4] of 93.6%, a viability, T/C (second compound 0.0316 µM, first compound 3.16 µM) of 60.5% and a viability, T/C (second compound 0.0316 µM, first compound 10 µM) of 29.7%. The viability, T/C [5] was 93.7%, the viability, T/C [6] was 127% and the viability, T/C [7] was 137%. For the same compound, the viability, T/C [8] was 86.9%, the viability, T/C (second compound 0.1 µM, first compound 3.16 µM) was 59.7% and the viability, T/C (second compound 0.1 µM, first compound 10 µM) was 28.1%. The viability, T/C [9] was 97.8%, the viability, T/C [10] was 106% and the viability, T/C [11] was 135%. The viability, T/C [12] was 80%, the viability, T/C (second compound 0.316 µM, first compound 3.16 µM) was 55.9% and the viability, T/C (second compound 0.316 µM, first compound 10 µM) was 28.1%. For the same compound, the viability, T/C [13] was 92.2%, the viability, T/C [14] was 115% and the viability, T/C [15] was 123%. For the same compound, the viability, T/C [16] was 79%, the viability, T/C (second compound 1 µM, first compound 3.16 µM) was 58.3% and the viability, T/C (second compound 1 µM, first compound 10 µM) was 28.4%. The viability, T/C [17] was 108%, the viability, T/C [18] was 110% and the viability, T/C [19] was 125%. For the same compound, the viability, T/C [20] was 74.6%, the viability, T/C (second compound 3.16 µM, first compound 3.16 µM) was 59.8% and the viability, T/C (second compound 3.16 µM, first compound 10 µM) was 24.4%. The viability, T/C [21] was 109%, the viability, T/C [22] was 116% and the viability, T/C [23] was 102%. The viability, T/C [24] was 65.9%, the viability, T/C (second compound 10 µM, first compound 3.16 µM) was 52.6% and the viability, T/C (second compound 10 µM, first compound 10 µM) was 24.3%.
Compound `CCc1c2c(nc3ccc(O)cc13)-c1cc3c(c(=O)n1C2)COC(=O)[C@]3(O)CC` + Nc1ccc(C#CCN(C(=O)Cc2ncc(C(F)(F)F)cc2C(F)(F)F)c2ccc(F)cc2)nn1 has an IC50 (second compound 0.0316 µM) of 30.9 nM, an IC50 (second compound 0.1 µM) of 30 nM and an IC50 (second compound 0.316 µM) of 26.1 nM. The IC50 (second compound 1 µM) was 27.4 nM, the IC50 (second compound 3.16 µM) was 25.5 nM and the IC50 (second compound 10 µM) was 21.4 nM. It also gave a viability, T/C [25] of 114%, a viability, T/C [26] of 87.4% and a viability, T/C [1] of 49.6%. For the same compound, the viability, T/C [2] was 26.4%, the viability, T/C [3] was 20.3% and the viability, T/C [4] was 18.1%. The viability, T/C [27] was 122%, the viability, T/C [28] was 87.1% and the viability, T/C [5] was 49.9%. It also gave a viability, T/C [6] of 24.7%, a viability, T/C [7] of 20.8% and a viability, T/C [8] of 19.1%. For the same compound, the viability, T/C [29] was 128%, the viability, T/C [30] was 86.9% and the viability, T/C [9] was 43.2%. It also gave a viability, T/C [10] of 23.1%, a viability, T/C [11] of 22.4% and a viability, T/C [12] of 19.4%. The viability, T/C [31] was 125%, the viability, T/C [32] was 82.5% and the viability, T/C [13] was 46.8%. The viability, T/C [14] was 24.2%, the viability, T/C [15] was 20.6% and the viability, T/C [16] was 18.3%. For the same compound, the viability, T/C [33] was 114%, the viability, T/C [34] was 82.9% and the viability, T/C [17] was 43.5%. The viability, T/C [18] was 20.9%, the viability, T/C [19] was 18.5% and the viability, T/C [20] was 18.1%. The viability, T/C [35] was 100%, the viability, T/C [36] was 71.8% and the viability, T/C [21] was 40.2%. It also gave a viability, T/C [22] of 18.5%, a viability, T/C [23] of 17% and a viability, T/C [24] of 15.9%.
`COc1cccc(OCCCN)c1-c1cc(Nc2cnc(C#N)cn2)n[nH]1` + Nc1ccc(C#CCN(C(=O)Cc2ncc(C(F)(F)F)cc2C(F)(F)F)c2ccc(F)cc2)nn1 gave an IC50 (second compound 0.0316 µM) of under 3.16 nM, an IC50 (second compound 0.1 µM) of under 3.16 nM and an IC50 (second compound 0.316 µM) of under 3.16 nM. The IC50 (second compound 1 µM) was under 3.16 nM, the IC50 (second compound 3.16 µM) was under 3.16 nM and the IC50 (second compound 10 µM) was under 3.16 nM. For the same compound, the viability, T/C [25] was 47%, the viability, T/C [26] was 13.1% and the viability, T/C [1] was 10.3%. For the same compound, the viability, T/C [2] was 9.69%, the viability, T/C [3] was 9.94% and the viability, T/C [4] was 10.9%. The viability, T/C [27] was 38.6%, the viability, T/C [28] was 13.4% and the viability, T/C [5] was 9.59%. The viability, T/C [6] was 9.13%, the viability, T/C [7] was 8.61% and the viability, T/C [8] was 9.39%. For the same compound, the viability, T/C [29] was 37.4%, the viability, T/C [30] was 13.8% and the viability, T/C [9] was 9.62%. For the same compound, the viability, T/C [10] was 8.58%, the viability, T/C [11] was 10.1% and the viability, T/C [12] was 9.81%. It also gave a viability, T/C [31] of 37.2%, a viability, T/C [32] of 11.3% and a viability, T/C [13] of 9.81%. It also gave a viability, T/C [14] of 8.9%, a viability, T/C [15] of 10.1% and a viability, T/C [16] of 9.12%. For the same compound, the viability, T/C [33] was 27.5%, the viability, T/C [34] was 10.3% and the viability, T/C [17] was 9.29%. For the same compound, the viability, T/C [18] was 8.63%, the viability, T/C [19] was 10.8% and the viability, T/C [20] was 10.4%. For the same compound, the viability, T/C [35] was 17.6%, the viability, T/C [36] was 8.38% and the viability, T/C [21] was 9.28%. For the same compound, the viability, T/C [22] was 8.09%, the viability, T/C [23] was 9.97% and the viability, T/C [24] was 9.55%.
